Results: ChEMBL document CHEMBL1201862, “PubChem BioAssay data set” (2004)
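A five-concentration, 48-hour dose response in 96-well plates underlies each endpoint, interpolated linearly between surrounding concentrations. Abbreviation: GI50, concentration required for 50% inhibition of growth.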 Calls of active or inactive are those of the source. Rule as the data show it: active = GI50 up to about 1.1 µM and inactive = higher.

How the values were obtained:
Experiment in all cases: NCI tumour cell line growth inhibition, 48 h
MOLT-4 = test system: MOLT-4
NCI-H522 = test system: NCI-H522
SW-620 = test system: SW-620
UACC-62 = test system: UACC-62
MDA-MB-435 = test system: MDA-MB-435
SF-268 = test system: SF-268
M14 = test system: M14
RXF 393 = test system: RXF 393
OVCAR-5 = test system: OVCAR-5
NCI/ADR-RES = test system: NCI/ADR-RES
SF-539 = test system: SF-539
SF-295 = test system: SF-295
EKVX = test system: EKVX
BT-549 = test system: BT-549
HCC 2998 = test system: HCC 2998
KM12 = test system: KM12
IGROV-1 = test system: IGROV-1
Malme-3M = test system: Malme-3M
NCI-H226 = test system: NCI-H226
SNB-75 = test system: SNB-75

Row | Structure (SMILES) | GI50 (MOLT-4) | GI50 (NCI-H522) | GI50 (SW-620) | GI50 (UACC-62) | GI50 (MDA-MB-435) | GI50 (SF-268) | GI50 (M14) | GI50 (RXF 393) | GI50 (OVCAR-5) | GI50 (NCI/ADR-RES) | GI50 (SF-539) | GI50 (SF-295) | GI50 (EKVX) | GI50 (BT-549) | GI50 (HCC 2998) | GI50 (KM12) | GI50 (IGROV-1) | GI50 (Malme-3M) | GI50 (NCI-H226) | GI50 (SNB-75)
1 | CCOC(=O)C(Cc1ccc(N(CCCl)CCCl)cc1)NC(=O)C(Cc1ccccc1)NC=O (configuration not stated) | 0.0289 µM (active) | 0.117 µM (active) | 0.184 µM (active) | 0.094 µM (active) | 0.263 µM (active) | 0.0968 µM (active) | 0.102 µM (active) | 0.0614 µM (active) | 0.337 µM (active) | 0.338 µM (active) | 0.139 µM (active) | 0.257 µM (active) | 0.332 µM (active) | 0.437 µM (active) | 0.0186 µM (active) | 0.48 µM (active) | 0.0492 µM (active) | 0.109 µM (active) | – | –
2 | CCOC(=O)c1ccc(C(=O)/C(C#N)=C2\CCCN2C)[nH]1 | > 100 µM (inactive) | > 100 µM (inactive) | > 100 µM (inactive) | > 100 µM (inactive) | > 100 µM (inactive) | > 100 µM (inactive) | > 100 µM (inactive) | > 100 µM (inactive) | > 100 µM (inactive) | > 100 µM (inactive) | – | > 100 µM (inactive) | > 100 µM (inactive) | > 100 µM (inactive) | > 100 µM (inactive) | > 100 µM (inactive) | > 100 µM (inactive) | > 100 µM (inactive) | > 100 µM (inactive) | > 100 µM (inactive)
3 | CC1(CCOCc2ccccc2)NC(=O)NC1=O (configuration not stated) | > 100 µM (inactive) | > 100 µM (inactive) | > 100 µM (inactive) | > 100 µM (inactive) | > 100 µM (inactive) | > 100 µM (inactive) | > 100 µM (inactive) | > 100 µM (inactive) | > 100 µM (inactive) | > 100 µM (inactive) | – | > 100 µM (inactive) | > 100 µM (inactive) | > 100 µM (inactive) | > 100 µM (inactive) | > 100 µM (inactive) | > 100 µM (inactive) | > 100 µM (inactive) | > 100 µM (inactive) | –
4 | O=C(O)c1cc2ccccc2c(Cc2c(O)c(C(=O)O)cc3ccccc23)c1O [PAMOIC ACID] | > 100 µM (inactive) | > 100 µM (inactive) | > 100 µM (inactive) | > 100 µM (inactive) | > 100 µM (inactive) | > 100 µM (inactive) | > 100 µM (inactive) | > 100 µM (inactive) | > 100 µM (inactive) | > 100 µM (inactive) | – | > 100 µM (inactive) | > 100 µM (inactive) | > 100 µM (inactive) | > 100 µM (inactive) | > 100 µM (inactive) | > 100 µM (inactive) | > 100 µM (inactive) | > 100 µM (inactive) | –
5 | COc1ccc2c(c1O)[C@@]13CCCC=C1[C@@H](C2)N(C)CC3 | 44.3 µM (inactive) | 25.2 µM (inactive) | 69.3 µM (inactive) | > 100 µM (inactive) | 36.6 µM (inactive) | > 100 µM (inactive) | 79.6 µM (inactive) | > 100 µM (inactive) | > 100 µM (inactive) | 33 µM (inactive) | – | > 100 µM (inactive) | > 100 µM (inactive) | 34 µM (inactive) | > 100 µM (inactive) | > 100 µM (inactive) | > 100 µM (inactive) | 1.75 µM (inactive) | 31.6 µM (inactive) | 36.7 µM (inactive)
6 | O=S1(=O)c2ccccc2N(c2ccccc2)c2nnnn21 | 19.5 µM (inactive) | 17.6 µM (inactive) | 22.3 µM (inactive) | 15.7 µM (inactive) | 29.4 µM (inactive) | 34.7 µM (inactive) | 20.9 µM (inactive) | 19.9 µM (inactive) | 33.3 µM (inactive) | 31.4 µM (inactive) | 18.7 µM (inactive) | 47 µM (inactive) | 33 µM (inactive) | 22.8 µM (inactive) | 17.7 µM (inactive) | 29.4 µM (inactive) | 32.3 µM (inactive) | – | 36.1 µM (inactive) | –
7 | CC(=O)Nn1cnc(C(=N)C#N)c1N | > 100 µM (inactive) | > 100 µM (inactive) | > 100 µM (inactive) | > 100 µM (inactive) | > 100 µM (inactive) | > 100 µM (inactive) | > 100 µM (inactive) | – | > 100 µM (inactive) | > 100 µM (inactive) | > 100 µM (inactive) | > 100 µM (inactive) | > 100 µM (inactive) | > 100 µM (inactive) | > 100 µM (inactive) | > 100 µM (inactive) | > 100 µM (inactive) | > 100 µM (inactive) | > 100 µM (inactive) | > 100 µM (inactive)
8 | Cc1cc(O)no1 [HYMEXAZOL] | – | > 100 µM (inactive) | > 100 µM (inactive) | > 100 µM (inactive) | > 100 µM (inactive) | > 100 µM (inactive) | > 100 µM (inactive) | > 100 µM (inactive) | > 100 µM (inactive) | > 100 µM (inactive) | > 100 µM (inactive) | > 100 µM (inactive) | > 100 µM (inactive) | > 100 µM (inactive) | > 100 µM (inactive) | – | > 100 µM (inactive) | – | > 100 µM (inactive) | > 100 µM (inactive)
9 | CC(=O)Nc1ccc2c(c1)/C(=N/c1ccc(C(=O)O)cc1)c1ccccc1-2 | 32.1 µM (inactive) | 70 µM (inactive) | > 100 µM (inactive) | 91.4 µM (inactive) | > 100 µM (inactive) | > 100 µM (inactive) | 99.1 µM (inactive) | > 100 µM (inactive) | > 100 µM (inactive) | 95.1 µM (inactive) | – | 96.4 µM (inactive) | 45.9 µM (inactive) | 47.1 µM (inactive) | > 100 µM (inactive) | 51.4 µM (inactive) | 46.3 µM (inactive) | > 100 µM (inactive) | 39.5 µM (inactive) | –
10 | COC(=O)C(C)(Cc1ccc2c(c1)nnn2C(C)=O)NC(C)=O (configuration not stated) | > 100 µM (inactive) | > 100 µM (inactive) | > 100 µM (inactive) | > 100 µM (inactive) | > 100 µM (inactive) | > 100 µM (inactive) | > 100 µM (inactive) | > 100 µM (inactive) | > 100 µM (inactive) | > 100 µM (inactive) | – | > 100 µM (inactive) | > 100 µM (inactive) | > 100 µM (inactive) | > 100 µM (inactive) | > 100 µM (inactive) | > 100 µM (inactive) | > 100 µM (inactive) | > 100 µM (inactive) | > 100 µM (inactive)
11 | CCS(=O)(=O)CCn1cnc2c1c(=O)n(C)c(=O)n2C | > 100 µM (inactive) | > 100 µM (inactive) | > 100 µM (inactive) | > 100 µM (inactive) | > 100 µM (inactive) | > 100 µM (inactive) | > 100 µM (inactive) | > 100 µM (inactive) | > 100 µM (inactive) | > 100 µM (inactive) | > 100 µM (inactive) | > 100 µM (inactive) | > 100 µM (inactive) | > 100 µM (inactive) | > 100 µM (inactive) | > 100 µM (inactive) | > 100 µM (inactive) | – | > 100 µM (inactive) | > 100 µM (inactive)
